In patent US7888504B2, “Glucokinase activators and methods of using same” (Bristol-Myers Squibb Company, priority 2006, dated 2011):

system: DIO mice; experiment: Oral glucose tolerance test (OGTT) in DIO mice; type: in vivo; settings: male DIO C57BL/6J mice, 60 mg/kg oral, given 60 min before 2 g/kg glucose, ΔAUC 0-120 min
Method: In Vivo Studies: Oral Glucose Tolerance Test (OGTT)
Oral glucose tolerance tests were carried out on male DIO (diet-induced obese C57BL/6J mice fed a high fat diet (60% kcal from fat) for 26 weeks prior to experimentation. Mice were fasted overnight before use for experiments. A test compound or vehicle (10% dimethyl acetamide+10% ethanol+10% Cremophore+70% water) was given orally 60 min before oral administration of a glucose solution at a dose of 2 g/kg body weight (oral glucose tolerance test; OGTT). Blood glucose levels were measured from tail-bled samples taken at different time points before and after administration of glucose (time course of 2 hours). A time curve of the blood glucose was generated and the change from baseline area-under-the curve (ΔAUC) from 0-120 min was calculated (the time glucose administration being time zero).

| Compound | reduction of glucose AUC levels in an OGTT [%] |
| --- | --- |
| CS(=O)(=O)c1ccc([C@@H](CC2CCCC2)C(=O)Nc2ncc(Oc3ccc(C(=O)O)cc3)s2)cc1 [Example 9] | 37 |

target: T1, Human Glucokinase (Homo sapiens, UniProt P35557); experiment: tandem Glucokinase activation assay (uncoupled); type: biochemical; settings: 12 mM glucose; human full-length GK 15 nM
T1 construct: Full-length human hepatic GK (untagged); made in house; host or cells: E. coli BL21 STAR (DE3)pLysS
T1 sequence (P35557 1-466 isoform P35557-2): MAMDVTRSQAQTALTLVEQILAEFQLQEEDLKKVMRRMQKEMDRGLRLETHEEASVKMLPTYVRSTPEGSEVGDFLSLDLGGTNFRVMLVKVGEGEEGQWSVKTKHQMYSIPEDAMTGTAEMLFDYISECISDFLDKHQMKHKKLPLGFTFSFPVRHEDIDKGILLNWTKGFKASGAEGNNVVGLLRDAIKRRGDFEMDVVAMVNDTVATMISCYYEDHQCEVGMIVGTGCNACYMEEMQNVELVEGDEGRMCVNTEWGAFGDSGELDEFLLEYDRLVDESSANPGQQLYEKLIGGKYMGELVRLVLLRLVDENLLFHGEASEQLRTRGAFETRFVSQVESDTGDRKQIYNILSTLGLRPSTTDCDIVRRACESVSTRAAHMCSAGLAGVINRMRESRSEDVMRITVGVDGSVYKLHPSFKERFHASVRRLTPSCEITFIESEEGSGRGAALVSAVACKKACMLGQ
Method: A tandem Glucokinase activation assay (uncoupled) was used to assess the activity of glucokinase (GK) in the presence of GK activator compounds. The below-described tandem assay protocol was followed using a range of activator compound concentrations from 0 to 100 µM at 5 and 12 mM concentrations of glucose. Human full-length GK (15 nM) was incubated with 5 or 12 mM glucose in 384 well black microtiter plates with a clear bottom. To initiate the GK reaction, magnesium-ATP (3 mM final concentration) was added to the protein in buffer, under the final buffer conditions of 25 mM HEPES buffer, pH 7.1, containing 1 mM DTT (dithiothreitol) and […]. The total reaction volume was 20 μL. The reaction was allowed to proceed for ten minutes and was then quenched with 5 μL EDTA (ethylenediamine tetra-acetic acid; 45 mM final). The components of the detection reaction, ThioNAD (thio-nicotinamide adenine dinucleotide) and G6PDH (glucose-6-phosphate dehydrogenase) (final concentrations of 650 μM and 3.33 Units, respectively), were then added together in a volume of 25 μL, and a total volume of 50 μL. Absorbance was read and activation calculated as a percentage of background activity, ie., GK in the presence of DMSO, with background glucose-6-phosphate subtracted. Absorbance measurements were made at 405 nm on a Spectramax Plus 384 absorbance plate reader (Molecular Devices). Background glucose-6-phosphate was determined by pre-quenching GK with EDTA prior to reaction initiation with ATP.
Expression and Purification of Human GK
Full-length human hepatic GK (untagged) as expressed in BL21 STAR (DE3)pLysS cells (Invitrogen) at 25° C. as described by Mookhtiar et al.^1 The protein was purified essentially as described by Lange^2 with a slight modification. Cell pellets were lysed via three rounds of freezing and thawing, centrifuged at 15000 g for clarification, and precipitated with 40-65% (NH4)2SO4. The resulting pellet was re-suspended in buffer dialyzed, and applied directly to a Q-Sepharose (Sigma) column followed by elution with a linear 100-600 mM KCl gradient. GK containing fractions were pooled, dialyzed overnight vs. 25 mM HEPES pH 7.2/1 mM MgCl2/1 mM EDTA/0.1 M KCl/1 mM DTT, then dialyzed again with the same buffer with 10% glycerol added. ^1Mookhtiar, K. A., Kalinowski, S. S., Brown, K. S., Tsay, Y. H., Smith-Monroy, C., and Robinson, G. W. (1996) “Heterologous expression and characterization of rat liver glucokinase regulatory protein”, Diabetes 45:1670-1677.^2Lange, A. J., Xu, L. Z., Van Poelwijk, F., Lin, K., Granner, D. K., and Pilkis, S. J. (1991) “Expression and site-directed mutagenesis of hepatic glucokinase”, Biochem. J., 277:159-163.

| EC50 [µM] | Compound |
| --- | --- |
| 0.753 | CS(=O)(=O)c1ccc([C@@H](CC2CCCC2)C(=O)Nc2ncc(Oc3cncc(C(=O)O)c3)s2)cc1 [Example 8] |
| 0.039 | O=C(Nc1ncc(Oc2cccc(C(=O)N3CCC3)c2)s1)[C@H](CC1CCOCC1)c1ccc(S(=O)(=O)C2CC2)cc1 [Example 18] |
| 0.038 | O=C(Nc1ncc(Oc2cccc(C(=O)N3CC(O)C3)c2)s1)[C@H](CC1CCOCC1)c1ccc(S(=O)(=O)C2CC2)cc1 [Example 19] |
| 8.7 | CS(=O)(=O)c1ccc([C@@H](CC2CCCC2)C(=O)Nc2ncc(Oc3ccc(C#N)cc3)s2)cc1 [Example 20] |
| 0.858 | CS(=O)(=O)c1ccc([C@@H](CC2CCCC2)C(=O)Nc2ncc(Oc3cccc(C(N)=O)c3)s2)cc1 [Example 21] |
| 3.96 | CS(=O)(=O)c1ccc([C@@H](CC2CCCC2)C(=O)Nc2ncc(Oc3ccccc3C(N)=O)s2)cc1 [Example 24] |
